Key:
[1] = test system: JEG-3 cells; experiment: [3H]-thymidine incorporation by JEG-3 cells (leptin assay in non-recombinant system); format: cell-based; settings: FIG. 5
Excerpt: Leptin Assay in Non-Recombinant System The leptin receptor expression in non-recombinant system is often fluctuating and care must be given to identify a system where signal stability remains within experiments. Using such a system, leptin receptor antagonist mimetics could be identified by evaluating is their action vs. leptin (see below). Leptin is produced chiefly in adipose cells, but in humans, mRNA encoding leptin is also present in the placenta. Here, leptin might play an important proliferative role in the microvasculature. The possibility to use this hypothesis in a native cell line was evaluated. JEG-3 Protocol In JEG-3 cells (choriocarcinoma cell line) leptin is able to stimulate proliferation up to 3 fold (Biol. Reprod. (2007) 76: 203-10). […] The radioactivity incorporated by the cells is an index of their proliferative activity and is measured in counts per minute (CPM) with a liquid scintillation beta counter. This finding can be applied to test whether a compound is able to either reproduce the effect of leptin on cell proliferation (leptin receptor agonist mimetic) (i.e., a given compound will cause an increase in incorporated [^3H]-Thymidine by the cells) or to inhibit the effect of leptin (antagonistic effect) by preventing the leptin-mediated increase in [^3H]-thymidine incorporation. […]

[2] = test system: JEG-3 cells; settings: Biol. Reprod. (2007) 76: 203-10; cited from earlier work

EC50 ([1]; JEG-3 cells (choriocarcinoma cell line), read-out: EC50, increase in [3H]-thymidine incorporation): 2.1 nM
Substance: leptin: a hormone synthesized in fat cells that is believed to act in the hypothalamus to reduce food intake and body weight
concentration of maximal effect on [3H]-thymidine incorporation ([1]; JEG-3 cells): 100 nM
stimulation of proliferation [2]: up to 3 fold
